Test [1] has as its system enzyme encoded by ClbP gene. The experiment in a line: Detection of ClbP enzyme / colibactin-producing E. coli in lyophilized fecal samples by fluorescent probe (Example 3). In kind it is biochemical, Escherichia coli. The following applies: probe 20 μM, lyophilized human feces suspended in milliQ water, 37° C., 24 hours or more, after extraction and unextracted. On the procedure: The feces samples (obtained from different 4 human subjects) lyophilized were each scooped 10 times by a spoon (about 40 mg) and suspended in milliQ water (200 μl). To the suspension, the 20 mM DMSO solution of probe 1 was added so as to obtain a final concentration of 20 μM (DMSO final concentration 0.1%). Thereafter, the suspension was shaken at 37° C. and 100 rpm for 24 hours or more. After the reaction, the reaction solution (200 μLS) was taken and centrifuged. The supernatant (200 μL) was directly subjected to detection performed at λex380 mm/λem460 mm (unextracted). The reaction solution (200 μL) was newly taken, sufficiently suspended by adding ethyl acetate (500 μL) and centrifuged. The ethyl acetate layer (450 μL) of the supernatant was collected and concentrated. To the concentrate, milliQ water (200 μL) was added. The mixture was sufficiently suspended and centrifuged. The supernatant (200 μL) was subjected to detection performed at λex380 mm/λem460 mm (after extraction). In FIG. 2, the detection results of 4 fecal samples are shown separately by “feces is present_1” to “feces is present_4”, respectively.

Test [2] deals with colibactin-producing Escherichia coli. Put plainly: Assay using cultured Escherichia coli, colibactin-producing versus non-producing strains (Example 4). The conditions noted are these: probe 20 μM in LB medium, 37° C., 24 hours or more, particularly after extraction; producers 5263, 5491, Nissle vs non-producers 1246, 1649T. In kind it is cell-based. On the procedure:
As Escherichia coli not producing colibactin, 1246 strain and 1649T strain were used. As the colibactin-producing Escherichia coli, 5263 strain, 5491 strain and Nissle strain were used.
Escherichia coli were cultured overnight and seeded (20 μL) in LB medium (2 to 4 mL) and further a 20 mM DMSO solution of probe 1 was added thereto so as to obtain a final concentration of 20 μM (DMSO final concentration: 0.1%), and cultured at 37° C. and 100 rpm for 24 hours or more while shaking. After reaction, the reaction solution (200 μL) was taken and centrifuged. The supernatant (200 μL) was directly subjected to detection performed at λex 380 mm/λem 460 mm (unextracted). The reaction solution (200 μL) was newly taken and ethyl acetate (500 μL) was added thereto. After sufficiently suspended, the suspension was centrifuged. The ethyl acetate layer (450 μL) of the supernatant was recovered and concentrated. To the concentrate, milliQ water (200 μL) was added. The mixture was sufficiently suspended and centrifuged. The supernatant (200 μL) was subjected to detection (after extraction) performed at λex 380 mm/λem 460 mm.

In test [3] the test system is colibactin positive bacterium. The experiment in a line: Detection of colibactin positive bacterium among Escherichia coli separated from colorectal tissue samples (Example 5). The following applies: 100 μM probe in LB, 37° C., 24 hours, threshold 100; 100 PCR-positive and 100 PCR-negative samples. The class given is cell-based. The source says:
In this Example, detection of a colibactin positive bacterium was tried by applying probe I to Escherichia coli bacteria separated from colon tissue samples (n=100) in which colibactin biosynthetic genes had been detected by PCR methods and colon tissue samples (n=100) in which colibactin biosynthetic genes had not been detected.
Escherichia coli bacteria were separated by homogenizing a human colorectal tissue sample with physiological saline and smearing the homogenized sample onto a MacConkey plate medium, and culturing it. […] Based on the presence or absence of an amplified fragment as an index, a colibactin positive bacterium or not was evaluated.
To evaluate the sensitivity and accuracy for detecting a colibactin positive bacterium by probe I, 100 Escherichia coli bacterium samples were prepared by separating Escherichia coli bacterium from colon tissue samples in which a colibactin positive bacterium was detected by the above PCR method; and 100 Escherichia coli bacterium samples separated were prepared by separating Escherichia coli bacterium from colon tissue samples in which a colibactin positive bacterium was not detected by the above PCR method. […] Measurement at λex 380 mm/λem 460 mm was carried out by a plate reader. The difference in fluorescence intensity between assay A and assay B (background) was obtained and the threshold was determined as 100. […]

Test [4] has as its system colibactin positive bacterium. The experiment in a line: Detection of colibactin positive bacterium using cultured fecal samples (Example 6). In kind it is cell-based, Escherichia coli. The conditions noted are these: colonies from human fecal samples, LB with 100 μM probe, 24 hours, λex 380 mm/λem 460 mm, compared with PCR. On the procedure:
Fecal samples obtained from human subjects were dissolved in water, applied to a plate comprising a MacConkey medium and cultured at 37° C. for 12 hours. The resultant red-purple colony was picked up, inoculated in LB liquid medium comprising 100 μM probe I and cultured for 24 hours. Fluorescence (λex 380 mm/λem 460 mm) was measured by a plate reader. These samples were checked for the presence or absence of a colibactin positive bacterium by a PCR method in the same manner as in Example 5 and the correlation with the fluorescence intensity generated from probe I was examined.

Where a SMILES comes first, the peptide text is derived from it. [ ]: non-standard residue; d: D form. The star is where a group is joined. Myristoyl = CCCCCCCCCCCCCC(=O)*; AMC = Cc1cc(=O)oc2cc(N*)ccc12

In the case of `CCCCCCCCCCCCCC(=O)N[C@H](CC(N)=O)C(=O)N[C@@H](C)C(=O)Nc1ccc2c(C)cc(=O)oc2c1` [probe 2] (Myristoyl-[dN]-Ala-{AMC}), the “fluorescence of the probe on contact with feces (ClbP dependent cleavage to AMC)” value in test [1] is given as “same results”.
As for `CCCCCCCCCCCCCC(=O)NC(CC(N)=O)C(=O)Nc1ccc2c(C)cc(=O)oc2c1` (stereo not drawn) [probe 1], the “fluorescence of the probe on contact with feces (ClbP dependent cleavage to AMC)” value in test [1] is on record as “fluorescence was regained”. Besides, the “detection of colibactin-producing Escherichia coli based on the fluorescence intensity of the probe” value in test [2] is given as “colibactin-producing Escherichia coli can be detected”. In test [3], the “accuracy of detecting a colibactin positive bacterium” value worked out at 100% and the “false positive rate (a rate determining a negative bacterium as a positive bacterium)” value is recorded as “less than 1%”. For the same compound, the “detection of colibactin positive bacterium present in fecal samples” value in test [4] was “highly sensitively and accurately detected”.

For the origin of these results see patent publication US11667945B2, “Detection method and detection probe for colibactin and colibactin-producing bacteria” (priority 2017, dated 2023).
